In patent publication US20090069343A1, “Combination Histamine H1R and H4R Antagonist Therapy for Treating Pruritus” (priority 2006, published 2009):

Assays:
Format in all cases: in vivo, mouse
[1] = tested on: CD-1 mice, histamine-induced itch; assay: Histamine-induced itch, Example 1a; conditions: oral dose 20 min before i.d. histamine, FIG. 8
Protocol: Methods. Experiments and procedures were performed under on-site IACUC standards and regulations. Female CD-1 mice (Charles River Hollister, Calif.) of approximately 10-12 weeks of age were used. Mice were housed under controlled light (6:00-18:00 h) and temperature (22° C.) with food and water available ad libitum. Histamine diphosphate (Sigma, St. Louis, Mo.) was dissolved in Dulbecco's phosphate buffered saline (PBS, pH=7.4) at various concentrations. H4R Inhibitor 1 was synthesized as described by Jablonowski et al. (J. Med. Chem. (2003), 46, 3957-3960), dissolved in a vehicle of 20% HPBCD/water at various concentrations, and administered per os (p.o.; by mouth) at a volume of 10 ml/kg. Antagonists of other histamine receptors, H1R (diphenhydramine and desloratadine), H2R (ranitidine) and H3R (1-[3-(4-piperidin-1-ylmethyl-phenoxy)-propyl]-piperidine, (“H3R Antagonist 1”; synthesized as described by Barbier et al., British J. Pharmacology (2004), 143: 649-661) were formulated similarly for use in experiments. In all experiments the hair was clipped over the rostral part of the back 24 hours prior to i.d. injection of pruritogen. Where noted, animals received an oral dose of histamine receptor antagonist 20 minutes prior to injection of pruritogen. Animals were injected i.d. with 20 μl of histamine. PBS was given as the vehicle control (“V). Immediately after intradermal injection, the animals were returned to an acrylic cage (approx. 15 cm dia×30 cm) to which they had been acclimated for at least 1 hour prior to the experiment, for observation of itch responses.

[2] = tested on: Balb/c mice, Compound 48/80-induced itch response; assay: Compound 48/80-induced itch response (scratches in 20 min), background example; conditions: for inhibition of itch response: Compound 48/80, FIG. 2
Protocol: The role of histamine H4 receptor in itch responses was evaluated in mice.

[3] = tested on: mice, histamine-induced scratching; assay: Histamine-induced scratching, background example; conditions: FIG. 4
Protocol: To evaluate the direct role of histamine in the pruritic response, histamine was injected in to the skin of mice and the amount of scratching measured.

[4] = tested on: mice, H4R agonist-induced scratching; assay: Selective H4R agonist-induced scratching, background example; conditions: oral administration; FIG. 6
[5] = tested on: CD-1 mice, Compound 48/80-induced itch; assay: Compound 48/80-induced itch, Example 1b; conditions: oral dose 20 min before i.d. Compound 48/80, FIG. 9
Protocol: Methods. Experiments and procedures were performed under on-site IACUC standards and regulations. Female CD-1 mice (Charles River Hollister, Calif.) of approximately 10-12 weeks of age were used. Mice were housed under controlled light (6:00-18:00 h) and temperature (22° C.) with food and water available ad libitum. Compound 48/80 (Sigma, St. Louis, Mo.) was dissolved in Dulbecco's phosphate buffered saline (PBS, pH=7.4) at 5 mg/ml. H4R Inhibitor 1 (synthesized as previously described) was dissolved in a vehicle of 20% HPBCD/water at various concentrations and administered p.o. at a volume of 10 ml/kg. […] In all experiments the mouse hair was clipped over the rostral part of the back 24 hours prior to i.d. injection of pruritogen. Where noted, animals received an oral dose of histamine receptor antagonist 20 min prior to injection of pruritogen. Animals were injected i.d. with 20 μl of Compound 48/80 or were given PBS as a vehicle control. Immediately after intradermal injection, the animals were returned to an acrylic cage (approx. 15 cm diameter×30 cm height) to which they had been acclimated for at least 1 h prior to the experiment, for observation of itch responses.

SMILES | effect on histamine-induced itch [1] | inhibition of itch response ([2]; 3 mg/kg) [%] | reduction of itch response ([2]; 30 mg/kg orally prior to Compound 48/80 injection, Balb/c mice) [%] | inhibition of itch response ([2]; 100 mg/kg (maximally active)) [%] | inhibition of histamine-induced scratching ([3]; 3 mg/kg oral pre-treatment) [%] | inhibition of histamine-induced scratching ([3]; 30 mg/kg oral pre-treatment (maximal)) [%] | effect on histamine-induced scratching ([3]; oral pre-treatment) | effect on H4R agonist-induced scratching [4] | effect on Compound 48/80-induced itch [5]
c1cc(OCCCN2CCCCC2)ccc1CN1CCCCC1 [H3R Antagonist 1, 1-[3-(4-piperidin-1-ylmethyl-phenoxy)-propyl]-piperidine] | neither the H2R antagonist ranitidine nor the H3R antagonist demonstrated significant inhibition | – | – | – | – | – | – | – | –
CN1CCN(C(=O)c2cc3cc(Cl)ccc3[nH]2)CC1 [H4R Inhibitor 1] | significant reduction of histamine-induced itch | 12 | 62.5 | 68 | 17 | 75 | dose-dependently inhibited | inhibitable | significantly reduced the itch
Clc1ccc2c(c1)CCc1cccnc1C2=C1CCNCC1 [desloratadine] | no effect | – | – | – | – | – | – | – | –
CN(C)CCOC(c1ccccc1)c1ccccc1 [diphenhydramine, reference compound] | Small but significant inhibition | – | – | – | – | – | – | – | Small but significant inhibition
